Biological target: T1, human IL-17AA (Homo sapiens, UniProt Q16552)
T1 construct: host or cells: HEK (human embryonic kidney) cells
T1 sequence (Q16552 24-155) 1: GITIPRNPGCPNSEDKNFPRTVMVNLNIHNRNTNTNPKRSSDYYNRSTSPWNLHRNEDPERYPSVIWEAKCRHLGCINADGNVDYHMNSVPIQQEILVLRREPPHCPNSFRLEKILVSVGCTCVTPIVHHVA
T1 sequence (Q16552 24-155) 2: T1 sequence (Q16552 24-155) 1
Experiment: IL-8 release assay in human epithelial keratinocytes adult (HEKa)
Assay type: cell-based
Details: 3 ng/ml human IL-17AA + 10 ng/ml human TNFalpha, 68-72 h, IL-8 by HTRF, read-out: Rel EC50 L-8 release assay
Experimental: Example: IL-8 release assay in human epithelial keratinocytes adult (HEKa) Keratinocytes were seeded at 3500 cells/well in 384-well ViewPlates (Perkin Elmer) in Epilife medium (Thermo Fisher) containing human keratinocyte growth supplement (HKGS) without hydrocortisone and incubated in a humid incubator at 37° C., 5% CO2, overnight. The following day growth medium was removed and 25 μl fresh Epilife 10 medium added. 75 nl test compound in 100% DMSO was added into each well reserved
for test compounds, by the use of acoustic pipetting. The remaining wells received an equal volume of DMSO only, as vehicle control, or terfenadine in DMSO, as a positive control for any cytotoxic compounds. Subsequently, another 25 μl Epilife medium was added to each well. Finally, wells containing test compounds and wells prepared to yield 15 maximum stimulation received 25 μl of 9 ng/ml recombinant, human embryonic kidney cell (HEK)-derived human IL-17AA+30 ng/ml human TNF-alpha, in Epilife medium. Wells prepared to define 100% inhibition of IL-17 effects received 25 μl of 30 ng/ml human TNF-alpha alone, in Epilife medium. Final concentrations were 3 ng/ml HEKhuman IL-17AA+10 ng/ml human TNFalpha (maximum stimulation) and 10 ng/ml 20 human TNFalpha alone (100% inhibition, Emax), respectively. Cells were incubated for 68-72 h in the incubator. IL-8 released from the cells was measured by the use of a commercial homogenous time-resolved fluorescence (HTRF) assay (CisBio). 2 μl cell culture supernatant was transferred to a 384-well Proxiplate. 5 μl HTRF reagent was added and the plates incubated sealed in the dark for 3-22 h at room temperature. Time resolved fluorescence was read at 665 vs 620 nm, with excitation at 320 nm, and IL-8 levels calculated as percent of controls. Reduction of the amount of secreted IL-8 indicates decreased IL-17 signaling. Concentration response curves were fitted by the use of a four-parameter logistic equation. Relative IC50 and Emax were reported from 5 curves showing acceptable fit (r2>0.9). Cytotoxicity was measured in the cell-containing
Compounds of the present invention were tested in the IL-8 release assay in human epithelial keratinocytes.

EC50 | Compound
< 100 nM | Cc1n[nH]c(C)c1-c1ccc(NC(=O)[C@@H](NC(=O)C2(F)CC2)[C@@H]2CCc3ccc(-c4ccnc(N5C[C@@H]6C[C@H]5CN6)c4)cc32)cc1 [Example 23, N-[(1S)-1-[(1R)-6-[2-[(1S,4S)-2,5-diazabicyclo[2.2.1]heptan-2-yl]-4-pyridyl]indan-1-yl]-2-[4-(3,5-dimethyl-1H-pyrazol-4-yl)anilino]-2-oxo-ethyl]-1-fluoro-cyclopropanecarboxamide]
< 100 nM | Cc1n[nH]c(C)c1-c1ccc(NC(=O)[C@@H](NC(=O)c2ccnn2C)[C@@H]2CCCc3ccc(-c4cnn(C5CC5)c4)cc32)cc1 [Example 26, N-[(1S)-1-[(1R)-7-(1-cyclopropylpyrazol-4-yl)tetralin-1-yl]-2-[4-(3,5-dimethyl-1H-pyrazol-4-yl)anilino]-2-oxo-ethyl]-2-methyl-pyrazole-3-carboxamide]
< 100 nM | Cc1n[nH]c(C)c1-c1ccc(NC(=O)[C@@H](NC(=O)C2(F)CC2)[C@@H]2CCCc3ccc(-c4ccnc(N5C[C@@H]6C[C@H]5CO6)c4)cc32)cc1 [Example 29, N-[(1S)-2-[4-(3,5-dimethyl-1H-pyrazol-4-yl)anilino]-1-[(1R)-7-[2-[(1S,4S)-2-oxa-5-azabicyclo[2.2.1]heptan-5-yl]-4-pyridyl]tetralin-1-yl]-2-oxo-ethyl]-1-fluoro-cyclopropanecarboxamide]
< 100 nM | CC(C)n1cc(-c2ccc3c(c2)[C@H]([C@H](NC(=O)OC2CC2)C(=O)Nc2ccc(-c4cncn4C)c(O)c2)CCC3)ccc1=O [Example 31, cyclopropyl N-[(1S)-2-[3-hydroxy-4-(3-methylimidazol-4-yl)anilino]-1-[(1R)-7-(1-isopropyl-6-oxo-3-pyridyl)tetralin-1-yl]-2-oxo-ethyl]carbamate]
< 100 nM | Cc1n[nH]c(C)c1-c1ccc(NC(=O)[C@@H](NC(=O)c2ccnn2C)[C@@H]2CCCc3ccc(-c4ccc5c(c4)CNC5)cc32)cc1 [Example 35, N-[(1S)-2-[4-(3,5-dimethyl-1H-pyrazol-4-yl)anilino]-1-[(1R)-7-isoindolin-5-yltetralin-1-yl]-2-oxo-ethyl]-2-methyl-pyrazole-3-carboxamide]
< 100 nM | Cc1n[nH]c(C)c1-c1ccc(NC(=O)[C@@H](NC(=O)C2(F)CC2)[C@@H]2CCCc3ccc(-c4ccnc(N5CCNCC5)c4)cc32)cc1 [Example 39, N-[(1S)-2-[4-(3,5-dimethyl-1H-pyrazol-4-yl)anilino]-2-oxo-1-[(1R)-7-(2-piperazin-1-yl-4-pyridyl)tetralin-1-yl]ethyl]-1-fluoro-cyclopropanecarboxamide]
100 to 1000 nM | Cc1ncn(C)c1-c1ccc(NC(=O)[C@@H](NC(=O)c2ccnn2C)[C@@H]2CCCc3ccc(-c4ccc5c(c4)CNC5)cc32)cc1 [Example 42, N-[(1S)-2-[4-(3,5-dimethylimidazol-4-yl)anilino]-1-[(1R)-7-isoindolin-5-yltetralin-1-yl]-2-oxo-ethyl]-2-methyl-pyrazole-3-carboxamide]
100 to 1000 nM | Cc1ncn(C)c1-c1ccc(NC(=O)[C@@H](NC(=O)C2(F)CC2)[C@@H]2CCCc3ccc(-c4ccc5c(c4)CNC5)cc32)cc1 [Example 43, N-[(1S)-2-[4-(3,5-dimethylimidazol-4-yl)anilino]-1-[(1R)-7-isoindolin-5-yltetralin-1-yl]-2-oxo-ethyl]-1-fluoro-cyclopropanecarboxamide]

The next lines start with the compound.

Compound | EC50
Cc1n[nH]c(C)c1-c1ccc(NC(=O)[C@@H](NC(=O)C2(F)CC2)[C@@H]2CCc3ccc(-c4cnn(C(C)(C)CN)c4)cc32)cc1 [Example 24, N-[(1S)-1-[(1R)-6-[1-(2-amino-1,1-dimethyl-ethyl)pyrazol-4-yl]indan-1-yl]-2-[4-(3,5-dimethyl-1H-pyrazol-4-yl)anilino]-2-oxo-ethyl]-1-fluoro-cyclopropanecarboxamide] | 100 to 1000 nM
CC(C)n1cc(-c2ccc3c(c2)C([C@H](NC(=O)c2ccnn2C)C(=O)Nc2ccc(-c4cncn4C)cc2)CC3)ccc1=O (stereo partly drawn) [Example 25, N-[(1S)-1-[6-(1-isopropyl-6-oxo-3-pyridyl)indan-1-yl]-2-[4-(3-methylimidazol-4-yl)anilino]-2-oxo-ethyl]-2-methyl-pyrazole-3-carboxamide] | 100 to 1000 nM
Cc1n[nH]c(C)c1-c1ccc(NC(=O)[C@@H](NC(=O)C2(F)CC2)[C@@H]2CCCc3ccc(-c4ccc(=O)n(C(C)C)c4)cc32)cc1 [Example 27, N-[(1S)-2-[4-(3,5-dimethyl-1H-pyrazol-4-yl)anilino]-1-[(1R)-7-(1-isopropyl-6-oxo-3-pyridyl)tetralin-1-yl]-2-oxo-ethyl]-1-fluoro-cyclopropanecarboxamide] | < 100 nM
Cc1n[nH]c(C)c1-c1ccc(NC(=O)[C@@H](NC(=O)C2(F)CC2)[C@@H]2CCCc3ccc(-c4ccnc(N5C[C@H]6C[C@@H]5CO6)c4)cc32)cc1 [Example 28, N-[(1S)-2-[4-(3,5-dimethyl-1H-pyrazol-4-yl)anilino]-1-[(1R)-7-[2-[(1R,4R)-2-oxa-5-azabicyclo[2.2.1]heptan-5-yl]-4-pyridyl]tetralin-1-yl]-2-oxo-ethyl]-1-fluoro-cyclopropanecarboxamide] | < 100 nM
CC(C)n1cc(-c2ccc3c(c2)[C@H]([C@H](NC(=O)c2ccnn2C)C(=O)Nc2ccc(-c4cncn4C)cc2)CCC3)ccc1=O [Example 30, N-[(1S)-1-[(1R)-7-(1-isopropyl-6-oxo-3-pyridyl)tetralin-1-yl]-2-[4-(3-methylimidazol-4-yl)anilino]-2-oxo-ethyl]-2-methyl-pyrazole-3-carboxamide] | < 100 nM
Cc1ncn(C)c1-c1ccc(NC(=O)[C@@H](NC(=O)OC2CC2)[C@@H]2CCCc3ccc(-c4ccnc(N5CCN(C)CC5)c4)cc32)cc1 [Example 32, cyclopropyl N-[(1S)-2-[4-(3,5-dimethylimidazol-4-yl)anilino]-1-[(1R)-7-[2-(4-methylpiperazin-1-yl)-4-pyridyl]tetralin-1-yl]-2-oxo-ethyl]carbamate] | 100 to 1000 nM
Cc1n[nH]c(C)c1-c1ccc(NC(=O)[C@@H](NC(=O)c2ccnn2C)[C@@H]2CCCc3ccc(-c4ccc(=O)n(C(C)C)c4)cc32)cc1O [Example 33, N-[(1S)-2-[4-(3,5-dimethyl-1H-pyrazol-4-yl)-3-hydroxy-anilino]-1-[(1R)-7-(1-isopropyl-6-oxo-3-pyridyl)tetralin-1-yl]-2-oxo-ethyl]-2-methyl-pyrazole-3-carboxamide] | < 100 nM
Cc1n[nH]c(C)c1-c1ccc(NC(=O)[C@@H](NC(=O)c2ccnn2C)[C@@H]2CCCc3ccc(-c4cnn(C(C)(C)C)c4)cc32)cc1 [Example 34, N-[(1S)-1-[(1R)-7-(1-tert-butylpyrazol-4-yl)tetralin-1-yl]-2-[4-(3,5-dimethyl-1H-pyrazol-4-yl)anilino]-2-oxo-ethyl]-2-methyl-pyrazole-3-carboxamide] | < 100 nM
Cc1n[nH]c(C)c1-c1ccc(NC(=O)[C@@H](NC(=O)c2ccnn2C)[C@@H]2CCCc3ccc(-c4ccc5c(c4)CCN(C)C5)cc32)cc1 [Example 36, N-[(1S)-2-[4-(3,5-dimethyl-1H-pyrazol-4-yl)anilino]-1-[(1R)-7-(2-methyl-3,4-dihydro-1H-isoquinolin-6-yl)tetralin-1-yl]-2-oxo-ethyl]-2-methyl-pyrazole-3-carboxamide] | < 100 nM
Cc1n[nH]c(C)c1-c1ccc(NC(=O)[C@@H](NC(=O)c2ccnn2C)[C@@H]2CCCc3ccc(-c4ccc5c(c4)CN(C)C5)cc32)cc1 [Example 37, N-[(1S)-2-[4-(3,5-dimethyl-1H-pyrazol-4-yl)anilino]-1-[(1R)-7-(2-methylisoindolin-5-yl)tetralin-1-yl]-2-oxo-ethyl]-2-methyl-pyrazole-3-carboxamide] | < 100 nM
Cc1n[nH]c(C)c1-c1ccc(NC(=O)[C@@H](NC(=O)c2ccnn2C)[C@@H]2CCCc3ccc(-c4ccc5c(c4)CCNC5)cc32)cc1 [Example 38, N-[(1S)-2-[4-(3,5-dimethyl-1H-pyrazol-4-yl)anilino]-2-oxo-1-[(1R)-7-(1,2,3,4-tetrahydroisoquinolin-6-yl)tetralin-1-yl]ethyl]-2-methyl-pyrazole-3-carboxamide] | < 100 nM
Cc1ncn(C)c1-c1ccc(NC(=O)[C@@H](NC(=O)C2(F)CC2)[C@@H]2CCCc3ccc(-c4ccnc(N5C[C@@H]6C[C@H]5CN6)c4)cc32)cc1 [Example 40, N-[(1S)-1-[(1R)-7-[2-[(1S,4S)-2,5-diazabicyclo[2.2.1]heptan-2-yl]-4-pyridyl]tetralin-1-yl]-2-[4-(3,5-dimethylimidazol-4-yl)anilino]-2-oxo-ethyl]-1-fluoro-cyclopropanecarboxamide] | < 100 nM

Source: patent US20220162191A1, “SMALL MOLECULE MODULATORS OF IL-17” (LEO PHARMA A/S, priority 2019, published 2022)
